In brackets after ≈: the same amount, converted by molar mass. Read-outs that look alike come from different tables or passages of the source.
How the values were obtained:
C. neoformans = experiment: In vitro antifungal susceptibility testing; assay type: cell-based, Cryptococcus neoformans; conditions: for MIC: Cryptococcus neoformans, read-out: C. neoformans MIC; for C. neoformans MIC: Table 1, highest value of at least three biological replicates
C. albicans [1] = conditions: cited from earlier work
[2] = system: calmodulin-dependent localization of Crz1; conditions: assay validation; cited from earlier work
C. albicans [3] = experiment: In vitro antifungal susceptibility testing; assay type: cell-based; conditions: Candida albicans, SC5314, read-out: C. albicans MIC
[4] = system: calmodulin-dependent localization of Crz1; experiment: Crz1 nuclear translocation assay; assay type: cell-based, Cryptococcus neoformans; conditions: shift to 37°C

Row | SMILES | MIC (C. neoformans) | C. neoformans MIC (C. neoformans) | other results
1 | CN1CCN(CCCN2c3ccccc3Sc3ccc(Cl)cc32)CC1 [Prochlorperazine (7), Prochlorperazine] | 64 µg/mL (≈ 171 µM) | – | –
2 | OCCN1CCN(CCCN2c3ccccc3Sc3ccc(C(F)(F)F)cc32)CC1 [Fluphenazine (10), Fluphenazine] | 8 µg/mL (≈ 18.3 µM) | 8 µg/mL | –
3 | OC(Cn1cncn1)(Cn1cncn1)c1ccc(F)cc1F [FLU, Fluconazole] | – | – | C. albicans MIC (C. albicans [1]; strain SC5314): 0.25 µg/mL; C. albicans MIC (C. albicans [1]; strain TWO7229): 0.25 µg/mL; C. albicans MIC (C. albicans [1]; strain TWO7230): 2 µg/mL; C. albicans MIC (C. albicans [1]; strain TWO7241): 16 µg/mL; C. albicans MIC (C. albicans [1]; strain TWO7243): 128 µg/mL
4 | CN(C)CCCN1c2ccccc2Sc2ccc(Cl)cc21 [Chlorpromazine (3), Chlorpromazine] | 25 µg/mL (≈ 78.4 µM) | – | –
5 | CC/C(=C(\c1ccccc1)c1ccc(OCCN(C)C)cc1)c1ccccc1 [tamoxifen] | – | – | Effect on nuclear localization of Crz1 [2]: reduce nuclear localization of Crz1
6 | CN1CCN(CCCN2c3ccccc3Sc3ccc(C(F)(F)F)cc32)CC1 [Trifluoperazine, TFP (8), Trifluoperazine] | 16 µg/mL (≈ 39.3 µM) | 16 µg/mL | MIC (C. albicans [3]): > 32 µg/mL; Effect on Crz1 localization ([4]; higher concentrations than 2 μg/mL, Fig. 1B): reduce localization significantly; Effect on Crz1 localization ([4]; sub-inhibitory concentration 2 μg/mL): fail to affect Crz1 localization; Effect on nuclear localization of Crz1 [2]: reduce nuclear localization of Crz1
7 | CSc1ccc2c(c1)N(CCC1CCCCN1C)c1ccccc1S2 (stereo not shown) [Thioridazine, THZ (1), Thioridazine] | 16 µg/mL (≈ 43.2 µM) | 16 µg/mL | –
8 | C=CC[C@@H]1/C=C(\C)C[C@H](C)C[C@H](OC)[C@H]2O[C@@](O)(C(=O)C(=O)N3CCCC[C@H]3C(=O)O[C@H](/C(C)=C/[C@@H]3CC[C@@H](O)[C@H](OC)C3)[C@H](C)[C@@H](O)CC1=O)[C@H](C)C[C@@H]2OC [FK506] | – | – | Effect on nuclear localization of Crz1 [2]: reduce nuclear localization of Crz1
9 | CN(C)CCCN1c2ccccc2Sc2ccc(C(F)(F)F)cc21 [Triflupromazine (4), Triflupromazine] | 32 µg/mL (≈ 90.8 µM) | – | –
10 | CN(C)CCCN1c2ccccc2Sc2ccccc21 [Promazine (2), Promazine] | 64 µg/mL (≈ 225 µM) | – | –
11 | CCN(CC)CCCCN1c2ccccc2Oc2ccc(Cl)cc21 [Compound 12] | – | 8 µg/mL | –
